Counter-ions that a name gives are not always drawn.
Experiments:
Assay type in all cases: cell-based
adenosine 1 receptor = target: T1, adenosine 1 receptor (Homo sapiens, UniProt P30542); experiment: Agonist activity against adenosine 1 receptor (CHO cells, forskolin-enhanced cAMP/SPAP reporter); conditions: CHO cells transfected with human receptor; forskolin-enhanced cAMP via SPAP; mean of all the versions tested
T1 sequence (P30542 1-326): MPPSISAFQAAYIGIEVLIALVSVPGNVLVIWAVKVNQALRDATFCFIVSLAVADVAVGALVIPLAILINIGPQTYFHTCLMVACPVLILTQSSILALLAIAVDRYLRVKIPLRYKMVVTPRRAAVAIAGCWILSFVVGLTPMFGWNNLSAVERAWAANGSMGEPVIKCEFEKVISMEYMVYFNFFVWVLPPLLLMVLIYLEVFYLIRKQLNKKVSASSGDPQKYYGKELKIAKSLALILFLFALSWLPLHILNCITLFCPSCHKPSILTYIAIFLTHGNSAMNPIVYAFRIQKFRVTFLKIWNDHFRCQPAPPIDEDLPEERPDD
Method: (§1) (1) Agonist activity against adenosine 2a, adenosine 1 and adenosine 3 receptor subtypes.
(§2) The effect of test compounds was determined by their effects on basal levels of cAMP (A2a) or on forskolin-enhanced cAMP (A1 and A3) as reflected by changes in levels of SPAP.

adenosine 3 receptor = target: T2, adenosine 3 receptor (Homo sapiens, UniProt P0DMS8); experiment: Agonist activity against adenosine 3 receptor (CHO cells, forskolin-enhanced cAMP/SPAP reporter); conditions: CHO cells transfected with human receptor; forskolin-enhanced cAMP via SPAP; mean of all the versions tested
T2 sequence (P0DMS8 1-318): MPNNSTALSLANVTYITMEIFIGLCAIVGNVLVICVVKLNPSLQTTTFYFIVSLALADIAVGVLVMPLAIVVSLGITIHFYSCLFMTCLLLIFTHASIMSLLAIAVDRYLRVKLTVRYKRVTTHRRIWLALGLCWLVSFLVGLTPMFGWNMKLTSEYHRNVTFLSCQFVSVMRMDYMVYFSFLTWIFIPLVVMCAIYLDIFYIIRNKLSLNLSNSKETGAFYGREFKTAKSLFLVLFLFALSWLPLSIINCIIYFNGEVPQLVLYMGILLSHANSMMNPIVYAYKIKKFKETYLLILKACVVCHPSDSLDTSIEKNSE
Method: as §1, §2

adenosine 2a receptor = adenosine 2a receptor (Homo sapiens, UniProt P29274); experiment: Agonist activity against adenosine 2a receptor (CHO cells, cAMP/SPAP reporter); conditions: CHO cells transfected with human receptor; basal cAMP via SPAP; mean of all the versions tested
Method: as §1, §2

adenosine 2a receptor, sequence (P29274 whole entry): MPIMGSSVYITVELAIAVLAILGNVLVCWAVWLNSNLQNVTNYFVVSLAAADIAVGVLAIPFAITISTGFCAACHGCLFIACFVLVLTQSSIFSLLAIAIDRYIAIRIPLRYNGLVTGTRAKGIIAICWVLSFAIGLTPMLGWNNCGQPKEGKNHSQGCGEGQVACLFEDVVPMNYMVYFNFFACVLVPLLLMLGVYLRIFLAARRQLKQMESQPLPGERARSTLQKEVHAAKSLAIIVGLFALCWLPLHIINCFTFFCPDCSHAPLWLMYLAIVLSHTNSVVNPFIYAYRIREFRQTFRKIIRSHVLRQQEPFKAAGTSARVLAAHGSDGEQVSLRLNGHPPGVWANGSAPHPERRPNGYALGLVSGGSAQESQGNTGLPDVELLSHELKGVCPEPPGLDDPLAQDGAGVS

Compound: CC(C)n1nnc(C2OC(n3cnc4c(NC5CCCC5)nc(NCCN5CCCC5)nc43)C(O)C2O)n1.O=CO.O=CO [Example 81, (2R,3R,4S,5R)-2-[6-Cyclopentylamino-2-(2-pyrrolidin-1-yl-ethylamino)-purin-9-yl]-5-(2-isopropyl-2H-tetrazol-5-yl)-tetrahydro-furan-3,4-diol Diformate]
- A1 EC50 as a ratio of that of NECA (adenosine 1 receptor): 89.11
- A3 EC50 as a ratio of that of NECA (adenosine 3 receptor): >156
- A2a EC50 as a ratio of that of NECA (adenosine 2a receptor): 4.77

Compound: Cn1nnc(C2OC(n3cnc4c(NC5CCCC5)nc(NC(CO)Cc5ccccc5)nc43)C(O)C2O)n1 [Example 36, (2R,3R,4S,5R)-2-[6-Cyclopentylamino-2-(1S-hydroxymethyl-2-phenyl-ethylamino)-purin-9-yl]-5-(2-methyl-2H-tetrazol-5-yl)-tetrahydro-furan-3,4-diol Formate]
- A1 EC50 as a ratio of that of NECA (adenosine 1 receptor): 1.9
- A3 EC50 as a ratio of that of NECA (adenosine 3 receptor): >315
- A2a EC50 as a ratio of that of NECA (adenosine 2a receptor): 0.99

Compound: CCn1nnc(C2OC(n3cnc4c(NCc5ccccc5)nc(NC(CO)Cc5ccccc5)nc43)C(O)C2O)n1 [Example 61, (2R,3R,4S,5R)-2-[6-Benzylamino-2-(1S-hydroxymethyl-2-phenyl-ethylamino)-purin-9-yl]-5-(2-ethyl-2H-tetrazol-5-yl)-tetrahydro-furan-3,4-diol Formate]
- A1 EC50 as a ratio of that of NECA (adenosine 1 receptor): 323.00
- A3 EC50 as a ratio of that of NECA (adenosine 3 receptor): >150
- A2a EC50 as a ratio of that of NECA (adenosine 2a receptor): 9.20

Compound: (2R,3R,4S,5R)-2-[6-(1-Ethyl-propylamino)-2-(2-piperidin-1-yl-ethylamino)-purin-9-yl]-5-(2-methyl-2H-tetrazol-5-yl)-tetrahydro-furan-3,4-diol Diformate [Example 24]
- A1 EC50 as a ratio of that of NECA (adenosine 1 receptor): >4798
- A3 EC50 as a ratio of that of NECA (adenosine 3 receptor): >157
- A2a EC50 as a ratio of that of NECA (adenosine 2a receptor): 0.36

Compound: Cn1cnc(CCNc2nc(NCc3ccccc3)c3ncn([C@@H]4O[C@H](c5nnn(C)n5)[C@@H](O)[C@H]4O)c3n2)c1.O=CO [Example 30, (2R,3R,4S,5R)-2-{6-Benzylamino-2-[2-(1-methyl-1H-imidazol-4-yl)-ethylamino]-purin-9-yl}-5-(2-methyl-2H-tetrazol-5-yl)-tetrahydro-furan-3,4-diol Formate]
- A1 EC50 as a ratio of that of NECA (adenosine 1 receptor): >7976
- A3 EC50 as a ratio of that of NECA (adenosine 3 receptor): >105
- A2a EC50 as a ratio of that of NECA (adenosine 2a receptor): 0.43

Compound: CC(=O)O.CCn1nnc([C@H]2O[C@@H](n3cnc4c(NCCC(C)(C)C)nc(NCCc5cn(C)cn5)nc43)[C@H](O)[C@@H]2O)n1 [Example 9, (2R,3R,4S,5R)-2-{6-(3,3-Dimethyl-butylamino)-2-[2-(1-methyl-1H-imidazol-4-yl)-ethylamino]-purin-9-yl}-5-(2-ethyl-2H-tetrazol-5-yl)-tetrahydro-furan-3,4-diol Acetate]
- A1 EC50 as a ratio of that of NECA (adenosine 1 receptor): 377
- A3 EC50 as a ratio of that of NECA (adenosine 3 receptor): >42
- A2a EC50 as a ratio of that of NECA (adenosine 2a receptor): 0.45

Compound: CCC(CC)Nc1nc(NC2CCN(Cc3ccccc3)C2)nc2c1ncn2C1OC(c2nnn(CC)n2)C(O)C1O.O=CO.O=CO [Example 65, (2R,3R,4S,5R)-2-[2-(1-Benzyl-pyrrolidin-3-ylamino)-6-(1-ethyl-propylamino)-purin-9-yl]-5-(2-ethyl-2H-tetrazol-5-yl)-tetrahydro-furan-3,4-diol bis(Formate)]
- A1 EC50 as a ratio of that of NECA (adenosine 1 receptor): 61.50
- A3 EC50 as a ratio of that of NECA (adenosine 3 receptor): >158
- A2a EC50 as a ratio of that of NECA (adenosine 2a receptor): 2.46

Compound: Cn1nnc(C2OC(n3cnc4c(NCc5cccc(I)c5)nc(NC5CCC(N)CC5)nc43)C(O)C2O)n1.O=CO.O=CO [Example 105, (2R,3R,4S,5R)-2-[2-(trans-4-Amino-cyclohexylamino)-6-(3-iodo-benzylamino)-purin-9-yl]-5-(2-methyl-2H-tetrazol-5-yl)-tetrahydro-furan-3,4-diol bis(Formate)]
- A1 EC50 as a ratio of that of NECA (adenosine 1 receptor): >2999.00
- A3 EC50 as a ratio of that of NECA (adenosine 3 receptor): >233
- A2a EC50 as a ratio of that of NECA (adenosine 2a receptor): 1.07

Compound: CCC(CC)Nc1nc(NCCN2CCCC2)nc2c1ncn2C1OC(c2nnn(C)n2)C(O)C1O.O=CO.O=CO [Example 90, (2R,3R,4S,5R)-2-[6-(1-Ethyl-propylamino)-2-(2-pyrrolidin-1-yl-ethylamino)-purin-9-yl]-5-(2-methyl-2H-tetrazol-5-yl)-tetrahydro-furan-3,4-diol Diformate]
- A1 EC50 as a ratio of that of NECA (adenosine 1 receptor): 245.90
- A3 EC50 as a ratio of that of NECA (adenosine 3 receptor): >267
- A2a EC50 as a ratio of that of NECA (adenosine 2a receptor): 2.41

Compound: CC(C)n1nnc(C2OC(n3cnc4c(NC(CO)Cc5ccccc5)nc(NCCc5cn(C)cn5)nc43)C(O)C2O)n1 [Example 40, (2R,3R,4S,5R)-2-{6-(1S-Hydroxymethyl-2-phenyl-ethylamino)-2-[2-(1-methyl-1H-imidazol-4-yl)-ethylamino]-purin-9-yl}-5-(2-isopropyl-2H-tetrazol-5-yl)-tetrahydro-furan-3,4-diol Formate]
- A1 EC50 as a ratio of that of NECA (adenosine 1 receptor): 22.1
- A3 EC50 as a ratio of that of NECA (adenosine 3 receptor): >232
- A2a EC50 as a ratio of that of NECA (adenosine 2a receptor): 0.31

Compound: CCn1nnc([C@H]2O[C@@H](n3cnc4c(NCC(c5ccccc5)c5ccccc5)nc(NC5CCS(=O)(=O)CC5)nc43)[C@H](O)[C@@H]2O)n1.O=C(O)C(F)(F)F [Example 115, (2R,3R,4S,5R)-2-[6-(2,2-Diphenyl-ethylamino)-2-(1,1--dioxo-hexahydro-1.lamda.6-thiopyran-4-ylamino)-purin-9-yl]-5-(2-ethyl-2H-tetrazol-5-yl)-tetrahydro-furan-3,4-diol Trifluoroacetate]
- A1 EC50 as a ratio of that of NECA (adenosine 1 receptor): 37.7
- A3 EC50 as a ratio of that of NECA (adenosine 3 receptor): >297.0
- A2a EC50 as a ratio of that of NECA (adenosine 2a receptor): 0.36

Compound: CCn1nnc([C@H]2O[C@@H](n3cnc4c(NCC(c5ccccc5)c5ccccc5)nc(NCCN5CCCCC5)nc43)[C@H](O)[C@@H]2O)n1.O=C(O)C(F)(F)F.O=C(O)C(F)(F)F [Example 46]
- A1 EC50 as a ratio of that of NECA (adenosine 1 receptor): 64.00
- A3 EC50 as a ratio of that of NECA (adenosine 3 receptor): >216
- A2a EC50 as a ratio of that of NECA (adenosine 2a receptor): 1.37

Compound: Cn1nnc(C2OC(n3cnc4c(NCc5cccc(I)c5)nc(NC(CO)Cc5ccccc5)nc43)C(O)C2O)n1 [Example 109, (2R,3R,4S,5R)-2-[2-(1S-Hydroxymethyl-2-phenyl-ethylamino)-6-(3-iodo-benzylamino)-purin-9-yl]-5-(2-methyl-2H-tetrazol-5-yl)-tetrahydro-furan-3,4-diol Formate]
- A1 EC50 as a ratio of that of NECA (adenosine 1 receptor): 17.70
- A3 EC50 as a ratio of that of NECA (adenosine 3 receptor): >446
- A2a EC50 as a ratio of that of NECA (adenosine 2a receptor): 8.54

Compound: Cn1nnc(C2OC(n3cnc4c(NC(CO)Cc5ccccc5)nc(NCCN5CCCC5)nc43)C(O)C2O)n1 [Example 111, (2R,3R,4S,5R)-2-[6-(1S-Hydroxymethyl-2-phenyl-ethylamino)-2-(2-pyrrolidin-1-yl-ethylamino)-purin-9-yl]-5-(2-methyl-2H-tetrazol-5-yl)-tetrahydro-furan-3,4-diol bis(Formate)]
- A1 EC50 as a ratio of that of NECA (adenosine 1 receptor): 298.50
- A3 EC50 as a ratio of that of NECA (adenosine 3 receptor): >315
- A2a EC50 as a ratio of that of NECA (adenosine 2a receptor): 2.92

Compound: (2R,3R,4S,5R)-2-[2-(trans-4-Amino-cyclohexylamino)-6-cyclopentylamino-purin-9-yl]-5-(2-methyl-2H-tetrazol-5-yl)-tetrahydro-furan-3,4-diol Diformate [Example 92]
- A1 EC50 as a ratio of that of NECA (adenosine 1 receptor): 253.70
- A3 EC50 as a ratio of that of NECA (adenosine 3 receptor): >192
- A2a EC50 as a ratio of that of NECA (adenosine 2a receptor): 1.24

Compound: CCn1nnc([C@H]2O[C@@H](n3cnc4c(N)nc(NC5CC6CCC5C6)nc43)[C@H](O)[C@@H]2O)n1.O=C(O)C(F)(F)F (stereo partly drawn) [Example 19, (2R,3R,4S,5R)-2-[6-Amino-2-(bicyclo[2.2.1]hept-2-ylamino)-purin-9-yl]-5-(2-ethyl-2H-tetrazol-5-yl)-tetrahydro-furan-3,4-diol Trifluoroacetate]
- A1 EC50 as a ratio of that of NECA (adenosine 1 receptor): 85.6
- A3 EC50 as a ratio of that of NECA (adenosine 3 receptor): >382
- A2a EC50 as a ratio of that of NECA (adenosine 2a receptor): 0.21

Compound: Cn1nnc(C2OC(n3cnc4c(N)nc(NC(CO)Cc5ccccc5)nc43)C(O)C2O)n1 [Example 37, (2R,3R,4S,5R)-2-[6-Amino-2-(1S-hydroxymethyl-2-phenyl-ethylamino)-purin-9-yl]-5-(2-methyl-2H-tetrazol-5-yl)-tetrahydro-furan-3,4-diol Formate]
- A1 EC50 as a ratio of that of NECA (adenosine 1 receptor): 119.1
- A3 EC50 as a ratio of that of NECA (adenosine 3 receptor): >348
- A2a EC50 as a ratio of that of NECA (adenosine 2a receptor): 0.52

Compound: CCn1nnc(C2OC(n3cnc4c(N)nc(NC5CCCC5O)nc43)C(O)C2O)n1 [Example 10, (2R,3R,4S,5R)-2-[6-Amino-2-(2R-hydroxy-cyclopent-1R-ylamino)-purin-9-yl]-5-(2-ethyl-2H-tetrazol-5-yl)-tetrahydro-furan-3,4-diol Hydrochloride]
- A1 EC50 as a ratio of that of NECA (adenosine 1 receptor): 22.1
- A3 EC50 as a ratio of that of NECA (adenosine 3 receptor): 3.66
- A2a EC50 as a ratio of that of NECA (adenosine 2a receptor): 0.11
